Tests used:
Cholinesterase [1] = target: Cholinesterase (Homo sapiens, UniProt P06276); experiment: Inhibition of BuChE in human serum using S-butyrylthiocholine iodide as substrate preincubated with enzyme for 20 mins followed by substrate addition by Ellman's method
Acetylcholinesterase [2] = target: Acetylcholinesterase (Electrophorus electricus, UniProt O42275); experiment: Inhibition of electric eel AChE using acetylthiocholine iodide as substrate preincubated with enzyme for 6 mins followed by substrate addition by Ellman's method
Sequence of Acetylcholinesterase (Electrophorus electricus, UniProt O42275) (O42275 whole entry): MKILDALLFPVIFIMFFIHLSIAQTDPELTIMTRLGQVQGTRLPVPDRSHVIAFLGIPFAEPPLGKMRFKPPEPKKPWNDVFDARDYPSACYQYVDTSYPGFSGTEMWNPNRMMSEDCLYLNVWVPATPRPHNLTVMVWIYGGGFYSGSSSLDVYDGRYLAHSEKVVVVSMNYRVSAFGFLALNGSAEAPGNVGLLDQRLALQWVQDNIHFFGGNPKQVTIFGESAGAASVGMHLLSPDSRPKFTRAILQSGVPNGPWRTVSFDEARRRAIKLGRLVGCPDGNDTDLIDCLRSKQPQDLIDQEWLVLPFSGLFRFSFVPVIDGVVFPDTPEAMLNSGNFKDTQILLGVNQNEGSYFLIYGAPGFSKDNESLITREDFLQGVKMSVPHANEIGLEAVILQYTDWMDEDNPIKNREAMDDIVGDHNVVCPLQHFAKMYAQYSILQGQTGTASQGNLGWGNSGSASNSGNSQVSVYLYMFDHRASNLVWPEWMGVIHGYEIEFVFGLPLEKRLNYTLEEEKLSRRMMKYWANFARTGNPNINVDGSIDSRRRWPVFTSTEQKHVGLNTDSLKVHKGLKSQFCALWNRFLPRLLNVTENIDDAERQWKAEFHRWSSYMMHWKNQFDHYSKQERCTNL

[3] = Selectivity index, ratio of IC50 for BuChE in equine serum to IC50 for electric eel AChE
Acetylcholinesterase [4] = target: Acetylcholinesterase (Homo sapiens, UniProt P22303); experiment: Inhibition of AChE in human erythrocytes using acetylthiocholine iodide as substrate preincubated with enzyme for 20 mins followed by substrate addition by Ellman's method; assay type: cell-based
Sequence of Acetylcholinesterase (Homo sapiens, UniProt P22303) (P22303 whole entry): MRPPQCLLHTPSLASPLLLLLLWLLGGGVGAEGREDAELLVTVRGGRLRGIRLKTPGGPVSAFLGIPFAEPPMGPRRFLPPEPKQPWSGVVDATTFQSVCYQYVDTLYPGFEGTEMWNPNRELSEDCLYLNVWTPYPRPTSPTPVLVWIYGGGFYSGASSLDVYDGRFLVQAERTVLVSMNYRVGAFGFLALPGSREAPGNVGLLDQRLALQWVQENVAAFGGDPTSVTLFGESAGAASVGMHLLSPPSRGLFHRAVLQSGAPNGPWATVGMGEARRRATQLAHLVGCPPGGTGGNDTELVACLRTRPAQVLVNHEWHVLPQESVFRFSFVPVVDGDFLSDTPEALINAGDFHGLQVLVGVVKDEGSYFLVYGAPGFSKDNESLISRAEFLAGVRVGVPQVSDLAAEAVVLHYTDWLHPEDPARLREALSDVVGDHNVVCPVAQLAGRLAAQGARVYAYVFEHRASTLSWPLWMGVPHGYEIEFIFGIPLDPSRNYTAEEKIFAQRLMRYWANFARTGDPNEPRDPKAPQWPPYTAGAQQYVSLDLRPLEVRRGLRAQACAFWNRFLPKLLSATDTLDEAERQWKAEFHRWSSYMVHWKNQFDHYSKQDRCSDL

Cholinesterase [5] = target: Cholinesterase (Equus caballus, UniProt P81908); experiment: Inhibition of BuChE in equine serum using S-butyrylthiocholine iodide as substrate preincubated with enzyme for 6 mins followed by substrate addition by Ellman's method
Sequence of Cholinesterase (Equus caballus, UniProt P81908) (P81908 whole entry): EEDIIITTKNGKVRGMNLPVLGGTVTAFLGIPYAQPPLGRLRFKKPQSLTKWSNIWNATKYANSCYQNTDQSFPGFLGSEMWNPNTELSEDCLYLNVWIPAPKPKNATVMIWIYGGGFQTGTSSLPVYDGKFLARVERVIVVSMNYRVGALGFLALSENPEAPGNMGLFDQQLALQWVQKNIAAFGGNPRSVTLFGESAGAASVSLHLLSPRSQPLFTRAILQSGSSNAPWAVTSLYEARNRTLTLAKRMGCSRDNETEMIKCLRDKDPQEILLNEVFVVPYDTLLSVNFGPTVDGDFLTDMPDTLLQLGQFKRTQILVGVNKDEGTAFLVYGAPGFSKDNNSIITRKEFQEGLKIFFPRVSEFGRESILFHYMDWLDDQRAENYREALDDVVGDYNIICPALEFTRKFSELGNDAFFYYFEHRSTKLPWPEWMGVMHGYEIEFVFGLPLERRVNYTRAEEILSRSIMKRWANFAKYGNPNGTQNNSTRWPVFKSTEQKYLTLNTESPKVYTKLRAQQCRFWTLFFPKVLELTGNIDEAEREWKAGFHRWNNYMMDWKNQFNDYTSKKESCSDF

[6] = target: Amyloid-beta precursor protein (Homo sapiens) (UniProt P05067); experiment: Inhibition of amyloid beta (1 to 42) (unknown origin) self-aggregation at 20 uM after 46 to 48 hrs by thioflavin T based fluorometric assay
Sequence of Amyloid-beta precursor protein (Homo sapiens) (P05067 whole entry): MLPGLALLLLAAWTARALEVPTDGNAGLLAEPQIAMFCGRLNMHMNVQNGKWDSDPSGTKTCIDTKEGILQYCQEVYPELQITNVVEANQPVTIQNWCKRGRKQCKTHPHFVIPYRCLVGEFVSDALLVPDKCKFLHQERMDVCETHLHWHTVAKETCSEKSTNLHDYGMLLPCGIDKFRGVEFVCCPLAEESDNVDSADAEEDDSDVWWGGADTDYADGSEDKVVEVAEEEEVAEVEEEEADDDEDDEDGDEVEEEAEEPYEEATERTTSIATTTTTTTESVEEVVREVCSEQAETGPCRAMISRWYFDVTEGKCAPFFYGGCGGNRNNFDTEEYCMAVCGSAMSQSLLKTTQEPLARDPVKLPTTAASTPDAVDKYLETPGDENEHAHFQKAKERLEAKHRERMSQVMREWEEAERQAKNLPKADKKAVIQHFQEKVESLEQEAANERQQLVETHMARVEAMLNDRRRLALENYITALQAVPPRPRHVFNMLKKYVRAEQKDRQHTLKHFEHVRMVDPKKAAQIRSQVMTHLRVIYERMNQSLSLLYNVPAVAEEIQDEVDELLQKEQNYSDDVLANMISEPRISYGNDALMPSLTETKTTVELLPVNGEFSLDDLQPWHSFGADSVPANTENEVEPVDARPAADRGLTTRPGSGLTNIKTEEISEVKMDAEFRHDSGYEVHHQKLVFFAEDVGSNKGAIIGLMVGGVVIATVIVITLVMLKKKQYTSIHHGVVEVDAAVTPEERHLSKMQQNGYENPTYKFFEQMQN

Homo sapiens = organism: Homo sapiens; experiment: Selectivity index, ratio of IC50 for BuChE in human serum to IC50 for AChE in human erythorcytes; assay type: cell-based
[7] = Cytotoxicity against human SH-SY5Y cells assessed as cell viability at 0.1 uM after 24 hrs by MTT assay; assay type: cell-based; conditions: read-out: Activity
[8] = Cytotoxicity against human SH-SY5Y cells assessed as cell viability at 2 uM after 24 hrs by MTT assay; assay type: cell-based; conditions: read-out: Activity
[9] = Cytotoxicity against human SH-SY5Y cells assessed as cell viability at 10 uM after 24 hrs by MTT assay; assay type: cell-based; conditions: read-out: Activity
[10] = Cytotoxicity against human SH-SY5Y cells assessed as cell viability at 5 uM after 24 hrs by MTT assay; assay type: cell-based; conditions: read-out: Activity
[11] = Cytotoxicity against human SH-SY5Y cells assessed as cell viability at 0.5 uM after 24 hrs by MTT assay; assay type: cell-based; conditions: read-out: Activity
[12] = Cytotoxicity against human SH-SY5Y cells assessed as cell viability at 1 uM after 24 hrs by MTT assay; assay type: cell-based; conditions: read-out: Activity

Sequence of Cholinesterase (Homo sapiens, UniProt P06276) (P06276 whole entry): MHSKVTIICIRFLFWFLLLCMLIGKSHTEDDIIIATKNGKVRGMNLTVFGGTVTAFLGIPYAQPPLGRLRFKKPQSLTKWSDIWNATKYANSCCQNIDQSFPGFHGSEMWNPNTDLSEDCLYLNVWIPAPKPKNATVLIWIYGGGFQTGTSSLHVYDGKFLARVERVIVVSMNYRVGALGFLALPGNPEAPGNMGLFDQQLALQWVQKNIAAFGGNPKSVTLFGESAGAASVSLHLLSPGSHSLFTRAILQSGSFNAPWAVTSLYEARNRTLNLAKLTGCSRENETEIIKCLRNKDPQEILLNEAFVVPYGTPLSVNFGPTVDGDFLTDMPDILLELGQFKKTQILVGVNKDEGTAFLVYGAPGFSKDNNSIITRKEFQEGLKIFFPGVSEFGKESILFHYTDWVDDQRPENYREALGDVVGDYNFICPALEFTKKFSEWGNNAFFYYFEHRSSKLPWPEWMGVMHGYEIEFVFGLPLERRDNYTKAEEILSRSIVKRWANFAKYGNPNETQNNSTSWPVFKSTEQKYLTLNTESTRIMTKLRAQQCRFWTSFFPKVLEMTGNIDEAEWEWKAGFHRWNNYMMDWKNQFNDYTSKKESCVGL

Row | SMILES | IC50 (Cholinesterase [1]) [µM] | IC50 (Acetylcholinesterase [2]) [µM] | Ratio IC50 [3] | IC50 (Acetylcholinesterase [4]) [µM] | IC50 (Cholinesterase [5]) [µM] | inhibition [6] [%] | Ratio IC50 (Homo sapiens) | viability at 24 h, 0.1 µM [7] [%] | viability at 24 h, 2 µM [8] [%] | viability at 24 h, 10 µM [9] [%] | viability at 24 h, 5 µM [10] [%] | viability at 24 h, 0.5 µM [11] [%] | viability at 24 h, 1 µM [12] [%]
1 | CCCN(CCC)CCCCCCOc1ccc(CC2NCCc3cc(OC)c(OC)cc32)cc1 (configuration not stated) | 11.2 | 3.01 | 1.44 | 3.46 | 4.32 | 51.2 | 3.23 |  |  |  |  |  | 
2 | COc1cc2c(cc1OC)C(Cc1ccc(OCCCCCCN3CCC(O)(Cc4ccccc4)CC3)cc1)NCC2 (configuration not stated) | 15.9 | 41.7 | 0.31 | 39.6 | 12.8 | 62.7 | 0.4 |  |  |  |  |  | 
3 | COc1cc2c(cc1OC)C(Cc1ccc(OCCCCCCN3CCCCC3C)cc1)NCC2 (configuration not stated) | 5.83 | 0.95 | 3.29 | 2.2 | 3.13 | 78.4 | 1.49 | 96.8 | 96.1 | 91.1 | 94.5 | 98.8 | 96.8
4 | COc1cc2c(cc1OC)C(Cc1ccc(OCCCCCCN3CCN(Cc4ccccc4)CC3)cc1)NCC2 (configuration not stated) | 21.7 | 53.5 | 0.2 | 5.59 | 10.5 | 61.4 | 3.88 |  |  |  |  |  | 
5 | COc1cc2c(cc1OC)C(Cc1ccc(OCCCCCCN3CCCC3C)cc1)NCC2 (configuration not stated) | 6.42 | 1.34 | 2.5 | 4.5 | 3.35 | 72.3 | 1.43 |  |  |  |  |  | 
6 | COc1cc2c(cc1OC)C(Cc1ccc(O)cc1)NCC2 (configuration not stated) | 46.8 | > 100 |  | > 100 | 39.7 | 36 |  |  |  |  |  |  | 
7 | CCCCN(CCCC)CCCCCCOc1ccc(CC2NCCc3cc(OC)c(OC)cc32)cc1 (configuration not stated) | 6.02 | 3.43 | 1.01 | 3.85 | 3.46 | 51.4 | 1.56 |  |  |  |  |  | 
8 | CCN(CC)CCCOc1ccc(CC2NCCc3cc(OC)c(OC)cc32)cc1 (configuration not stated) |  | 13.2 | 1.57 |  | 20.8 | 41.1 |  |  |  |  |  |  | 
9 | COc1cc2c(cc1OC)C(Cc1ccc(OCCCCCCN(C)C)cc1)NCC2 (configuration not stated) | 3.43 | 3.14 | 2.75 | 7.13 | 8.65 | 55.3 | 0.48 |  |  |  |  |  | 
10 | COc1cc2c(cc1OC)C(Cc1ccc(OCCCCCCN3CCOCC3)cc1)NCC2 (configuration not stated) | 10.6 | 28.6 | 0.45 | 35.5 | 13 | 57.4 | 0.29 |  |  |  |  |  | 
11 | COc1cc2c(cc1OC)C(Cc1ccc(OCCCCCCN3CCN(c4ccccc4)CC3)cc1)NCC2 (configuration not stated) | 12.9 | 17.1 | 0.51 | 16.3 | 8.78 | 65.8 |  |  |  |  |  |  | 
12 | COc1cc2c(cc1OC)C(Cc1ccc(OCCCCCCN3CCC(O)CC3)cc1)NCC2 (configuration not stated) | 23.7 | 13.3 | 1.07 | 9.59 | 14.2 | 62.1 | 2.47 |  |  |  |  |  | 
13 | CCN(CC)CCCCCOc1ccc(CC2NCCc3cc(OC)c(OC)cc32)cc1 (configuration not stated) |  | 7.02 | 1.46 |  | 10.3 | 34.3 |  |  |  |  |  |  | 
14 | CCN(CC)CCCCCCCOc1ccc(CC2NCCc3cc(OC)c(OC)cc32)cc1 (configuration not stated) |  | 4.67 | 1.96 |  | 9.13 | 43.9 |  |  |  |  |  |  | 
15 | COc1cc2c(cc1OC)C(Cc1ccc(OCCCCCCN3CCCCC3)cc1)NCC2 (configuration not stated) | 3.25 | 1.14 | 1.96 | 2.14 | 2.51 | 76.4 | 1.69 |  |  |  |  |  | 
16 | COc1cc2c(cc1OC)C(Cc1ccc(OCCCCCCN3CCCC3)cc1)NCC2 (configuration not stated) | 2.27 | 1.28 | 2.05 | 2.98 | 2.34 | 69 | 0.76 |  |  |  |  |  | 
17 | CCN(CC)CCCCCCCCOc1ccc(CC2NCCc3cc(OC)c(OC)cc32)cc1 (configuration not stated) |  | 6.33 | 3.17 |  | 20.1 | 39.6 |  |  |  |  |  |  | 
18 | COc1cc2c(cc1OC)C(Cc1ccc(OCCCCCCN3CCC(c4ccccc4)CC3)cc1)NCC2 (configuration not stated) | 9.29 | 6.69 | 1.19 | 9.33 | 7.99 | 61.2 |  |  |  |  |  |  | 
19 | CCN(CC)CCCCCCOc1ccc(CC2NCCc3cc(OC)c(OC)cc32)cc1 (configuration not stated) | 16.7 | 2.28 | 2.17 | 4.99 | 4.95 | 56.4 | 3.35 |  |  |  |  |  | 
20 | CCN(CC)CCCCOc1ccc(CC2NCCc3cc(OC)c(OC)cc32)cc1 (configuration not stated) |  | 7.58 | 2.02 |  | 15.3 | 47.3 |  |  |  |  |  |  | 

Reference: ChEMBL document CHEMBL3259766, “Design, synthesis and biological evaluation of benzylisoquinoline derivatives as multifunctional agents against Alzheimer's disease” (Bioorg Med Chem Lett, 2014)
